We go through 21 compounds from EP4624466A1, “DEGRADER FOR DECOMPOSING CMET PROTEIN, AND PHARMACEUTICAL COMPOSITION COMPRISING SAME” (Innocure Therapeutics, Inc., priority 2022, dated 2024).

In one assay the target is c-MET (Homo sapiens, UniProt P08581). As to the kind of experiment: c-MET protein degradation (Simple Western), MKN-45. Conditions: c-MET overexpressing gastric cancer cell line MKN-45, treated 24 hours. It counts as cell-based. More on the design: assess the resolution of the compound of the present invention for c-MET expressed in cells; endogenous in cells; host or cells: MKN45 (human gastric cancer). How it is done: In order to assess the resolution of the compound of the present invention for c-MET expressed in cells, cells were dispensed in a 12-well plate at a concentration of 2 × 10^5 cells/well, and then gastric cancer cell lines were treated with samples for 24 hours and lung cancer cell lines were treated for 48 hours. Cell lysates were collected using a scraper on ice, centrifuged at 4°C15,000 rpm for 30 min to obtain a protein-containing supernatant. Protein expression was then measured using the Simple Western Automated Western Blot System Abby instrument using 3 µg of protein for each sample. SDS and heat-induced denaturation proteins were separated by molecular weight, attached to capillary, reacted with anti-c-MET or anti-GAPDH antibodies, which are primary antibodies, and then reacted with HRP-conjugated secondary antibodies, and analyzed the protein expression signal with compass software. Protein expression was normalized based on the expression value of GAPDH, and protein development in each sample was measured as a percentage (%) based on 100% of samples treated with 0.1% DMSO carriers, and DC50 (concentration of a compound where 50% protein inhibition is achieved) was calculated from the change in protein expression amount due to compound treatment.
c-MET, sequence (P08581 25-1390): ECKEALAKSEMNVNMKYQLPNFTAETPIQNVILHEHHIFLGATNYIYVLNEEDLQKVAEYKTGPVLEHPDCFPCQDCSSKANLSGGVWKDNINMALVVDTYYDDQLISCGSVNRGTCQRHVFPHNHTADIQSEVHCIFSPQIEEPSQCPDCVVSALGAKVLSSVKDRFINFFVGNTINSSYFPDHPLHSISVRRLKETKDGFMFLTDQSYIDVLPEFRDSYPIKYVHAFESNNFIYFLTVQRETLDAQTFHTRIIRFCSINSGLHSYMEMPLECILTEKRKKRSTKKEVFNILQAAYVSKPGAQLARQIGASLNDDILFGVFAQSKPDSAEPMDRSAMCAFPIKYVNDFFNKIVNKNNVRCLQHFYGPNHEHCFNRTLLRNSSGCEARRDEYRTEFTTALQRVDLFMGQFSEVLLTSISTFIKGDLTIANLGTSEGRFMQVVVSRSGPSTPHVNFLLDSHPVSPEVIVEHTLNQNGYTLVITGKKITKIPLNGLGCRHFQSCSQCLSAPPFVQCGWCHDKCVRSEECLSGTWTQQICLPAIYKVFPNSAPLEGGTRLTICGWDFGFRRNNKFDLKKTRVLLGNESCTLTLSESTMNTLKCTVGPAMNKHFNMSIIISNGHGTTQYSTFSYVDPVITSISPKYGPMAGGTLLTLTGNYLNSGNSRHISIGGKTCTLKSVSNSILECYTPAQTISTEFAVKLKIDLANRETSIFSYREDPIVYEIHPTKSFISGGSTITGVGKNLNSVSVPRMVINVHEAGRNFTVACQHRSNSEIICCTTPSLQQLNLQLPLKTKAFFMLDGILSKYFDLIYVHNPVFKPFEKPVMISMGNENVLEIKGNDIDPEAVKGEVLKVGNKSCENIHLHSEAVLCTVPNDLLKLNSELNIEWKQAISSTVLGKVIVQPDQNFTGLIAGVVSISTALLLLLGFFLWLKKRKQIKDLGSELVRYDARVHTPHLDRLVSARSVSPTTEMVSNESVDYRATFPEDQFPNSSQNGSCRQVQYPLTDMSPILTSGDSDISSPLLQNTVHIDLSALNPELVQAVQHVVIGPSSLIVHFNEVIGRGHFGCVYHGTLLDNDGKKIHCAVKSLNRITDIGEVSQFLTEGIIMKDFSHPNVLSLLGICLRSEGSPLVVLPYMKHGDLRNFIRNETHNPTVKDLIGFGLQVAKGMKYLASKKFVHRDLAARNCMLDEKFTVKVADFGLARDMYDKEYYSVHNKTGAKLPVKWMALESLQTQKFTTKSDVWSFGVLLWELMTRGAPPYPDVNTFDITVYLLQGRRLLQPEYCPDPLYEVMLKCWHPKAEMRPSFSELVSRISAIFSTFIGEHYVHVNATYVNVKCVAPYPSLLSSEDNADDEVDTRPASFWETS

The next assay has as its system SNU-638. Briefly: Cell viability / antiproliferative assay (WST-8), SNU-638. It counts as cell-based, human. Conditions: read-out: SNU-638 IC50. On the technique in general: Tetrazolium dyes change colour on reduction, which living cells bring about.
The next assay deals with MKN-45. Briefly: Cell viability / antiproliferative assay (WST-8), MKN-45.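 Further: MKN-45 is a human gastric cancer line overexpressing c-MET, growth inhibition read as WST-8 formazan absorbance at 450 nm after 2 h dye incubation.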 Conditions: read-out: MKN-45 IC50.
The mark [1] stands for this setting: SNU-638 cells, 72 hours, WST-8, Table 2.

Read-outs that look alike come from different tables or passages of the source.

Method for SNU-638: c-MET overexpressing human gastric cancer cell lines [MKN45] and [SNU638] were cultured in RPMI medium with 10% fetal bovine serum, penicillin (100U/ml), and streptomycin (100mg/ml), and c-MET exon 14 skipping mutant human gastric cancer cell lines [Hs746T] were cultured in DMEM media. The c-MET overexpressing human lung cancer cell line EBC-1 was cultured in MEM media with the addition of 10% fetal bovine serum, penicillin (100U/ml), and streptomycin (100mg/ml). […] The compound synthesized in accordance with the present invention was prepared with a raw material solution of 10 mM dissolved in DMSO (dimethyl sulfoxide), and was sequentially diluted and processed.
In order to observe the inhibitory activity on cell growth, cells were dispensed in a 96-well plate at a concentration of 5,000 cells/well, and then treated with the compound prepared at various concentrations for 72 hours. The viability of the cells was calculated using GraphicPad Prism 8.0 software by adding 10 ml per well of WST-8 (water soluble tetrazolium salt) sample, which reacts with dehydrogenase present in the electron transport system of mitochondria to produce formazon, incubated for 2 hours, and measured absorbance at 450 nm.

A word on the DC50: it is the concentration giving 50% degradation. As a reminder, the IC50 is the concentration at which inhibition is half-maximal. Take `Cn1cc(-c2cnc3c(nnn3C[C@@H]3CN(c4ncc(-c5ccc(CN6CCN(C(=O)CCCCCCNc7ccc8c(=O)n(C9CCC(=O)NC9=O)ncc8c7)CC6)cc5)cn4)CCO3)n2)cn1` (stereo partly drawn) [ICT-0000925, 3-(6-((7-(4-(4-(2-((S)-2-((5-(1-methyl-1H-pyrazole-4-yl)-1H-[1,2,3]triazolo[4,5-b]pyrazine-1-yl)methyl)morpholino)pyrimidine-5-yl)benzyl)piperazine-1-yl)7-oxoheptyl)amino)1-oxopthalazine-2(1H)-yl)piperidine-2,6-dione]: the DC50 on c-MET (Table 1) is less than 100 nM. In addition, the IC50 was less than 100 nM in the assay with SNU-638 (SNU-638 cells, 72 hours, WST-8, Table 1) and less than 100 nM in the assay on MKN-45 (MKN-45 cells, 72 hours, WST-8, Table 1).

Consider `Cc1nn(C2CCC(=O)NC2=O)c(=O)c2ccc(N3CCN(C4CCN(CC(=O)N5CCC(COc6cnc(-c7cccc(Cn8nc(-c9cccc(C#N)c9)ccc8=O)c7)nc6)CC5)CC4)CC3)cc12` (centres unmarked) [ICT-0001255], for which, on c-MET (Table 2), the DC50 is less than 100 nM. Moreover, the IC50 is less than 100 nM with SNU-638 (Homo sapiens, SNU-638, 72 h) and less than 100 nM in the assay on MKN-45 (Homo sapiens, MKN-45, 72 h).

Take `Cc1cc2c(=O)n(C3CCC(=O)NC3=O)nc(C)c2cc1N1CCN(CC2CCN(CCN3CCC(COc4cnc(-c5cccc(Cn6nc(-c7cccc(C#N)c7)ccc6=O)c5)nc4)CC3)CC2)CC1` (centres unmarked) [ICT-0001319]: the IC50 in the assay with SNU-638 (setting [1]) was less than 100 nM.

Regarding `Cn1cc(-c2cnc3c(nnn3C[C@@H]3CN(c4ncc(-c5ccc(CN6CCN(C(=O)CCCCNc7ccc8c(=O)n(C9CCC(=O)NC9=O)ncc8c7)CC6)cc5)cn4)CCO3)n2)cn1` (stereo partly drawn) [ICT-0000924, 3-(6-((5-(4-(4-(2-((S)-2-((5-(1-methyl-1H-pyrazole-4-yl)-1H-[1,2,3]triazolo[4,5-b]pyrazine-1-yl)methyl)morpholino)pyrimidine-5-yl)benzyl)piperazine-1-yl)5-oxopentyl)amino)1-oxopthalazine-2(1H)-yl)piperidine-2,6-dione], the half-maximal degradation concentration (DC50) on c-MET (Table 1) is less than 100 nM. The IC50 was less than 100 nM in the assay on SNU-638 (Homo sapiens, SNU-638, 72 h) and less than 100 nM in the assay with MKN-45 (Homo sapiens, MKN-45, 72 h).

Consider `Cc1nn(C2CCC(=O)NC2=O)c(=O)c2ccc(N3CCN(C[C@@H]4CN(CCN5CCC(COc6cnc(-c7cccc(Cn8nc(-c9cccc(C#N)c9)ccc8=O)c7)nc6)CC5)CCO4)CC3)cc12` (some centres unmarked) [ICT-0001315], for which the 50% inhibitory concentration (IC50) in the assay on SNU-638 (setting [1]) was less than 100 nM.

As for `N#Cc1cccc(-c2ccc(=O)n(Cc3cccc(-c4ncc(OCC5CCN(C(=O)CCCCCCNc6ccc7c(=O)n(C8CCC(=O)NC8=O)ncc7c6)CC5)cn4)c3)n2)c1` (centres unmarked) [ICT-0000985, 3-(1-{[3-(5-{[1-(7-{[2-(2,6-dioxopiperidin-3-yl)-1-oxo-1,2-dihydropthalazine-6-yl]amino}heptanoyl)piperidine-4-il]methoxy}pyrimidine-2-yl)phenyl]methyl}-6-oxo-1,6-dihydropyridazine-3-yl)benzonitrile], the DC50 on c-MET (Table 2) is less than 100 nM. Further, the IC50 in the assay on MKN-45 (Homo sapiens, MKN-45, 72 h) is less than 100 nM.

As for `Cn1cc(-c2cnc3c(nnn3C[C@@H]3CN(c4ncc(-c5ccc(CN6CCN(C(=O)CCCNc7ccc8c(=O)n(C9CCC(=O)NC9=O)ncc8c7)CC6)cc5)cn4)CCO3)n2)cn1` (stereo partly drawn) [ICT-0000922, 3-{6-[(4-{4-[(4-{2-[(2S)-2-{[5-(1-methyl-1H-pyrazole-4-yl)-1H-[1,2,3]triazolo[4,5-b]pyrazine-1-yl]methyl}morpholine-4-il]pyrimidine-5-yl}phenyl)methyl]piperazine-1-yl}-4-oxobutyl)amino]-1-oxo-1,2-dihydroptalazine-2-yl}piperidine-2,6-dione], at c-MET (Table 1), the DC50 is less than 100 nM. Moreover, the IC50 in the assay on SNU-638 (Homo sapiens, SNU-638, 72 h) is less than 100 nM; in the assay on MKN-45 (Homo sapiens, MKN-45, 72 h), less than 100 nM.

Regarding `N#Cc1cccc(-c2ccc(=O)n(Cc3cccc(-c4ncc(OCC5CCN(CC(=O)N6CCN(c7ccc8c(=O)n(C9CCC(=O)NC9=O)ncc8c7)CC6)CC5)cn4)c3)n2)c1` (centres unmarked) [ICT-0001221], the DC50 on c-MET (Table 2) was less than 100 nM. Moreover, the IC50 with MKN-45 (Homo sapiens, MKN-45, 72 h) is less than 100 nM.

`Cc1nn(C2CCC(=O)NC2=O)c(=O)c2ccc(N3CCN(C(=O)CN4CCC(COc5cnc(-c6cccc(Cn7nc(-c8cccc(C#N)c8)ccc7=O)c6)nc5)CC4)CC3)cc12` (centres unmarked) [ICT-0001177, 3-(1-{[3-(5-{[1-(2-{4-[2-(2,6-dioxopiperidin-3-yl)-4-methyl-1-oxo-1,2-dihydropthalazine-6-yl]piperazine-1-yl}-2-oxoethyl)piperidine-4-yl]methoxy}pyrimidine-2-yl)phenyl]methyl}-6-oxo-1,6-dihydropyridazine-3-yl)benzonitrile] came in with a DC50 at c-MET (Table 2) of less than 100 nM. Also, in the assay on MKN-45 (Homo sapiens, MKN-45, 72 h), the half-maximal inhibitory concentration (IC50) is less than 100 nM.

For `Cc1nn(C2CCC(=O)NC2=O)c(=O)c2ccc(N3CCN(C4CCN(C(=O)CN5CCC(COc6cnc(-c7cccc(Cn8nc(-c9cccc(C#N)c9)ccc8=O)c7)nc6)CC5)CC4)CC3)cc12` (centres unmarked) [ICT-0001237], the DC50 on c-MET (Table 2) is less than 100 nM. Also, the IC50 in the assay with MKN-45 (Homo sapiens, MKN-45, 72 h) was less than 100 nM.

`Cc1nn(C2CCC(=O)NC2=O)c(=O)c2c(NCC(=O)N3CCC(COc4cnc(-c5cccc(Cn6nc(-c7cccc(C#N)c7)ccc6=O)c5)nc4)CC3)cccc12` (centres unmarked) [ICT-0000981] had a DC50 on c-MET (Table 2) of more than 1000 nM. In the assay with MKN-45 (Homo sapiens, MKN-45, 72 h), the IC50 is less than 100 nM.

The compound `Cc1nn(C2CCC(=O)NC2=O)c(=O)c2ccc(N3CCN(CC4CN(C(=O)CN5CCC(COc6cnc(-c7cccc(Cn8nc(-c9cccc(C#N)c9)ccc8=O)c7)nc6)CC5)C4)CC3)cc12` (centres unmarked) [ICT-0001235] had a half-maximal degradation concentration (DC50) at c-MET (Table 2) of less than 100 nM. Also, the IC50 in the assay with MKN-45 (Homo sapiens, MKN-45, 72 h) is less than 100 nM.

On to `Cc1nn(C2CCC(=O)NC2=O)c(=O)c2ccc(NCCOCCOCCOCCOCCC(=O)N3CCC(COc4cnc(-c5cccc(Cn6nc(-c7cccc(C#N)c7)ccc6=O)c5)nc4)CC3)cc12` (centres unmarked) [ICT-0001091], for which the DC50 on c-MET (Table 2) is less than 100 nM. In addition, in the assay with MKN-45 (Homo sapiens, MKN-45, 72 h), the IC50 is less than 100 nM.

The compound `N#Cc1cccc(-c2ccc(=O)n(Cc3cccc(-c4ncc(OCC5CCN(CC(=O)NCCCCCc6ccc7c(=O)n(C8CCC(=O)NC8=O)ncc7c6)CC5)cn4)c3)n2)c1` (centres unmarked) [ICT-0001206] had a DC50 on c-MET (Table 2) of less than 100 nM. Further, the IC50 in the assay on MKN-45 (Homo sapiens, MKN-45, 72 h) is less than 100 nM.

`Cc1nn(C2CCC(=O)NC2=O)c(=O)c2cc(N3CCN(CC4CCN(C(=O)CN5CCC(COc6cnc(-c7cccc(Cn8nc(-c9cccc(C#N)c9)ccc8=O)c7)nc6)CC5)CC4)CC3)ccc12` (centres unmarked) [ICT-0001195] yielded a 50% degradation concentration (DC50) at c-MET (Table 2) of less than 100 nM. Moreover, the IC50 in the assay with MKN-45 (Homo sapiens, MKN-45, 72 h) is less than 100 nM.

In the case of `Cn1cc(-c2cnc3c(nnn3C[C@@H]3CN(c4ncc(-c5ccc(CN6CCN(C(=O)CCCCCCNc7cccc8cnn(C9CCC(=O)NC9=O)c(=O)c78)CC6)cc5)cn4)CCO3)n2)cn1` (stereo partly drawn) [ICT-0000960, 3-{8-[(7-{4-[(4-{2-[(2S)-2-{[5-(1-methyl-1H-pyrazole-4-yl)-1H-[1,2,3]triazolo[4,5-b]pyrazine-1-yl]methyl}morpholine-4-yl]pyrimidine-5-yl}phenyl)methyl]piperazine-1-yl}-7-oxoheptyl)amino]-1-oxo-1,2-dihydrophthalazine-2-yl}piperidine-2,6-dione], on c-MET (Table 1), the DC50 was in the range of 100 to 1000 nM. Also, in the assay with MKN-45 (Homo sapiens, MKN-45, 72 h), the IC50 is less than 100 nM.

For `N#Cc1cccc(-c2ccc(=O)n(Cc3cccc(-c4ncc(OCC5CCN(CCCC#Cc6ccc7c(=O)n(C8CCC(=O)NC8=O)ncc7c6)CC5)cn4)c3)n2)c1` (centres unmarked) [ICT-0001305], the IC50 in the assay on SNU-638 (setting [1]) is less than 100 nM.

Compound `Cn1cc(-c2cnc3c(nnn3C[C@@H]3CN(c4ncc(-c5ccc(CN6CCN(C(=O)CCCNc7cccc8cnn(C9CCC(=O)NC9=O)c(=O)c78)CC6)cc5)cn4)CCO3)n2)cn1` (some centres unmarked) [ICT-0000969] yielded a DC50 on c-MET (Table 1) of less than 100 nM. Besides, the IC50 in the assay with MKN-45 (Homo sapiens, MKN-45, 72 h) was less than 100 nM.

For `Cc1nn(C2CCC(=O)NC2=O)c(=O)c2cc(N3CCC(CN4CCN(CC(=O)N5CCC(COc6cnc(-c7cccc(Cn8nc(-c9cccc(C#N)c9)ccc8=O)c7)nc6)CC5)CC4)CC3)ccc12` (centres unmarked) [ICT-0001239], on c-MET (Table 2), the 50% degradation concentration (DC50) is less than 100 nM. The IC50 in the assay with MKN-45 (Homo sapiens, MKN-45, 72 h) was less than 100 nM.

As for `Cn1cc(-c2cnc3c(nnn3C[C@@H]3CN(c4ncc(-c5ccc(CN6CCN(C(=O)CCCCCNc7ccc8c(=O)n(C9CCC(=O)NC9=O)ncc8c7)CC6)cc5)cn4)CCO3)n2)cn1` (stereo partly drawn) [ICT-0000923, 3-{6-[(6-{4-[(4-{2-[(2S)-2-{[5-(1-methyl-1H-pyrazole-4-yl)-1H-[1,2,3]triazolo[4,5-b]pyrazine-1-yl]methyl}morpholine-4-day]pyrimidine-5-yl}phenyl)methyl]piperazine-1-yl}-6-oxohexyl)amino]-1-oxo-1,2-dihydrophthalazine-2-yl}piperidine-2,6-dione], on c-MET (Table 1), the DC50 is less than 100 nM. For the same compound, the IC50 is less than 100 nM with SNU-638 (Homo sapiens, SNU-638, 72 h) and less than 100 nM in the assay with MKN-45 (Homo sapiens, MKN-45, 72 h).

`Cn1cc(-c2cnc3c(nnn3C[C@@H]3CN(c4ncc(-c5ccc(CN6CCN(C(=O)COCCOCCOCCNc7ccc8c(=O)n(C9CCC(=O)NC9=O)ncc8c7)CC6)cc5)cn4)CCO3)n2)cn1` (stereo partly drawn) [ICT-0000938, 3-[6-(12-{4-[(4-{2-[(2S)-2-{[5-(1-methyl-1H-pyrazole-4-yl)-1H-[1,2,3]triazolo[4,5-b]pyrazine-1-yl]methyl}morpholine-4-day]pyrimidine-5-yl}phenyl)methyl]piperazine-1-yl}-12-oxo-4,7,10-trioxa-1-azadodecane-1-yl)-1-oxo-1,2-dihydroptalazine-2-yl]piperidine-2,6-dione] gave a 50% degradation concentration (DC50) at c-MET (Table 1) of more than 1000 nM. Besides, the IC50 with MKN-45 (Homo sapiens, MKN-45, 72 h) lay within 100 to 1000 nM.
